Measured values reported in article PMC2014795 (PLoS Pathogens, 2007).
Where no end group is shown, it is not given here.

These compounds were tested against T1, HLA-DR1 (DRB1*0101) (Homo sapiens, UniProt P01903+P01911, A100R/D57E/F55L/F60I/F76Y/I96L/L162R/M171V/P40L/Q125E/R42F/V115G/Y59C) (assay: biochemical). Conditions: not given.
T1 construct: the extracellular portion of HLA-DR1 was produced by expression of isolated subunits in Escherichia coli inclusion bodies; made in house
Type: binding

Row | Compound | IC50
1 | CC[C@H](C)[C@H](NC(=O)[C@H](CCCNC(=N)N)NC(=O)[C@H](Cc1ccccc1)NC(=O)[C@H](CC(C)C)NC(=O)[C@H](Cc1ccc(O)cc1)NC(=O)[C@H](CCC(=O)O)NC(=O)[C@H](CO)NC(=O)[C@H](CC(=O)O)NC(=O)[C@@H](N)CCC(=O)O)C(=O)N[C@H](C(=O)N[C@@H](CO)C(=O)N[C@H](C(=O)N[C@H](C(=O)N[C@@H](CC(C)C)C(=O)N1CCC[C@H]1C(=O)N[C@@H](Cc1c[nH]cn1)C(=O)N[C@@H](CC(C)C)C(=O)N[C@@H](CS)C(=O)N[C@@H](CC(C)C)C(=O)N[C@@H](CC(=O)O)C(=O)N[C@@H](Cc1ccc(O)cc1)C(=O)O)C(C)C)[C@@H](C)O)C(C)C [Peptide 334] | 0.045 ± 0.008 µM
2 | CC(C)C[C@H](NC(=O)[C@H](Cc1ccc(O)cc1)NC(=O)[C@H](CCCNC(=N)N)NC(=O)CNC(=O)[C@H](CCC(=O)O)NC(=O)[C@H](CCCCN)NC(=O)[C@@H](NC(=O)[C@@H](N)CC(N)=O)[C@@H](C)O)C(=O)N[C@H](C(=O)N[C@@H](CC(C)C)C(=O)N[C@@H](CCCCN)C(=O)N[C@@H](C)C(=O)N[C@H](C(=O)N[C@@H](CCCCN)C(=O)N[C@H](C(=O)N[C@@H](CS)C(=O)N[C@@H](CC(=O)O)C(=O)N[C@H](C(=O)N[C@@H](CCCNC(=N)N)C(=O)N[C@H](C(=O)N[C@H](C(=O)O)C(C)C)[C@@H](C)O)C(C)C)C(C)C)C(C)C)C(C)C [Peptide 301] | 0.19 ± 0.016 µM
3 | CC[C@H](C)[C@H](NC(=O)CNC(=O)[C@H](CO)NC(=O)[C@H](CCC(N)=O)NC(=O)[C@H](CC(N)=O)NC(=O)[C@@H](NC(=O)[C@H](Cc1ccccc1)NC(=O)[C@@H]1CCCN1C(=O)[C@H](CCC(=O)O)NC(=O)[C@H](Cc1ccccc1)NC(=O)[C@@H](NC(=O)[C@H](CC(C)C)NC(=O)[C@@H](N)CS)C(C)C)C(C)C)C(=O)N[C@@H](CCC(=O)O)C(=O)N[C@H](C(=O)N[C@@H](CC(C)C)C(=O)N[C@@H](CC(C)C)C(=O)N[C@@H](CC(C)C)C(=O)N[C@@H](Cc1ccc(O)cc1)C(=O)N[C@@H](Cc1ccccc1)C(=O)N[C@@H](CCCCN)C(=O)O)[C@@H](C)CC [Peptide 311] | 3.4 µM
4 | CC[C@H](C)[C@H](NC(=O)[C@H](CCC(=O)O)NC(=O)[C@H](CC(=O)O)NC(=O)[C@@H](NC(=O)[C@H](CC(=O)O)NC(=O)[C@H](CC(C)C)NC(=O)[C@@H](NC(=O)[C@H](CCCCN)NC(=O)CNC(=O)[C@H](Cc1c[nH]cn1)NC(=O)[C@@H](NC(=O)[C@@H](NC(=O)[C@H](Cc1ccc(O)cc1)NC(=O)[C@H](CCSC)NC(=O)[C@H](CC(=O)O)NC(=O)[C@H](Cc1ccc(O)cc1)NC(=O)[C@@H]1CCCN1C(=O)[C@H](CC(C)C)NC(=O)[C@H](CCCNC(=N)N)NC(=O)[C@@H](N)CCCCN)[C@@H](C)CC)[C@@H](C)CC)C(C)C)[C@@H](C)CC)C(=O)N[C@@H](CC(C)C)C(=O)O [Peptide 339] | 0.21 ± 0.045 µM
5 | CC[C@H](C)[C@H](NC(=O)[C@H](CO)NC(=O)[C@H](C)NC(=O)[C@H](CC(=O)O)NC(=O)[C@H](CC(C)C)NC(=O)[C@H](CC(C)C)NC(=O)[C@H](CO)NC(=O)[C@H](C)NC(=O)[C@@H](NC(=O)[C@H](CO)NC(=O)[C@@H](NC(=O)[C@@H](NC(=O)[C@@H](NC(=O)[C@@H](NC(=O)[C@@H](NC(=O)[C@H](CCCCN)NC(=O)[C@@H](N)CCSC)C(C)C)C(C)C)[C@@H](C)CC)C(C)C)[C@@H](C)O)C(C)C)C(=O)N[C@@H](CCC(N)=O)C(=O)N[C@@H](Cc1ccccc1)C(=O)N[C@@H](CCC(N)=O)C(=O)N[C@@H](CCCCN)C(=O)O [Peptide 332] | 0.38 ± 0.028 µM
6 | CC[C@H](C)[C@H](NC(=O)[C@H](Cc1ccccc1)NC(=O)[C@H](CC(C)C)NC(=O)[C@H](CC(C)C)NC(=O)[C@H](CS)NC(=O)[C@@H](NC(=O)[C@H](C)NC(=O)[C@H](C)NC(=O)[C@@H](NC(=O)[C@H](C)NC(=O)[C@@H](NC(=O)[C@@H](NC(=O)[C@@H](NC(=O)[C@H](Cc1ccccc1)NC(=O)[C@H](Cc1ccccc1)NC(=O)[C@@H](NC(=O)[C@H](CO)NC(=O)[C@H](CC(C)C)NC(=O)[C@H](CO)NC(=O)[C@H](CC(N)=O)NC(=O)[C@@H](N)CCSC)[C@@H](C)CC)[C@@H](C)CC)C(C)C)C(C)C)[C@@H](C)O)C(C)C)C(=O)O [Peptide 325] | 0.58 ± 0.05 µM
7 | CC[C@H](C)[C@H](N)C(=O)N[C@@H](Cc1ccccc1)C(=O)N[C@@H](CCCCN)C(=O)N[C@@H](CC(N)=O)C(=O)N[C@@H](CC(N)=O)C(=O)N[C@@H](CC(=O)O)C(=O)N[C@H](C(=O)N[C@@H](CCCNC(=N)N)C(=O)N[C@H](C(=O)N[C@@H](CC(C)C)C(=O)N[C@@H](CC(C)C)C(=O)NCC(=O)N[C@@H](CC(C)C)C(=O)N[C@H](C(=O)N[C@@H](CC(C)C)C(=O)N[C@@H](Cc1ccccc1)C(=O)N[C@H](C(=O)N[C@@H](CC(C)C)C(=O)N[C@@H](C)C(=O)N[C@@H](CC(C)C)C(=O)N[C@@H](Cc1ccc(O)cc1)C(=O)O)C(C)C)[C@@H](C)CC)[C@@H](C)O)C(C)C [Peptide 322] | 1.27 µM
8 | CC[C@H](C)[C@H](NC(=O)[C@H](CCCNC(=N)N)NC(=O)[C@H](CO)NC(=O)CNC(=O)[C@H](CCC(N)=O)NC(=O)[C@H](CCC(=O)O)NC(=O)[C@@H](NC(=O)CNC(=O)[C@H](CC(C)C)NC(=O)[C@@H]1CCCN1C(=O)[C@H](CCCCN)NC(=O)[C@H](CCSC)NC(=O)[C@H](CC(C)C)NC(=O)[C@H](CC(C)C)NC(=O)[C@H](CC(C)C)NC(=O)[C@H](CC(N)=O)NC(=O)[C@H](Cc1ccccc1)NC(=O)[C@H](CCSC)NC(=O)[C@H](CC(=O)O)NC(=O)[C@H](Cc1ccc(O)cc1)NC(=O)[C@@H](N)CO)[C@@H](C)CC)C(=O)O [Peptide 337] | 0.028 ± 0.006 µM
9 | TTKHPDYAILAARIAVSNLHK [Peptide 307] | 0.028 ± 0.004 µM
10 | CC[C@H](C)[C@H](N)C(=O)N[C@@H](CCCCN)C(=O)N[C@@H](CCCNC(=N)N)C(=O)NCC(=O)N[C@@H](CC(C)C)C(=O)N[C@@H](Cc1ccccc1)C(=O)N[C@@H](Cc1ccccc1)C(=O)N[C@@H](CC(C)C)C(=O)N[C@@H](CCCNC(=N)N)C(=O)N[C@@H](CC(C)C)C(=O)N[C@@H](CO)C(=O)N[C@@H](C)C(=O)N[C@@H](CC(N)=O)C(=O)N[C@@H](CC(C)C)C(=O)N[C@@H](Cc1ccccc1)C(=O)N[C@@H](CCC(=O)O)C(=O)N[C@@H](CO)C(=O)N[C@@H](CCC(N)=O)C(=O)N[C@H](C(=O)N[C@@H](CO)C(=O)N[C@@H](CO)C(=O)O)C(C)C [Peptide 333] | 0.068 ± 0.014 µM
11 | CC[C@H](C)[C@H](NC(=O)[C@H](C)NC(=O)[C@H](CCCNC(=N)N)NC(=O)CNC(=O)[C@@H](NC(=O)[C@@H](NC(=O)[C@H](CCC(N)=O)NC(=O)[C@H](CCCNC(=N)N)NC(=O)[C@H](CC(C)C)NC(=O)[C@H](CO)NC(=O)[C@H](C)NC(=O)[C@H](CCC(=O)O)NC(=O)[C@H](CC(N)=O)NC(=O)[C@H](Cc1c[nH]c2ccccc12)NC(=O)[C@@H](N)[C@@H](C)O)[C@@H](C)CC)C(C)C)C(=O)N[C@@H](CCCNC(=N)N)C(=O)N[C@@H](CC(C)C)C(=O)N[C@@H](CC(N)=O)C(=O)N[C@@H](CO)C(=O)N[C@@H](Cc1c[nH]cn1)C(=O)N[C@H](C(=O)O)C(C)C [Peptide 343] | 0.21 ± 0.02 µM
12 | CC[C@H](C)[C@H](NC(=O)[C@@H](NC(=O)[C@H](CC(C)C)NC(=O)[C@H](C)NC(=O)[C@@H](NC(=O)[C@H](CC(C)C)NC(=O)[C@H](C)NC(=O)[C@H](CC(C)C)NC(=O)[C@H](CC(C)C)NC(=O)[C@H](CCSC)NC(=O)[C@H](CCC(N)=O)NC(=O)[C@H](Cc1ccc(O)cc1)NC(=O)[C@H](CC(N)=O)NC(=O)[C@H](CCCNC(=N)N)NC(=O)[C@H](CO)NC(=O)[C@@H](NC(=O)[C@H](CC(C)C)NC(=O)[C@@H](N)CCCNC(=N)N)C(C)C)C(C)C)C(C)C)C(=O)N[C@H](C(=O)N[C@@H](CC(C)C)C(=O)N[C@H](C(=O)O)[C@@H](C)O)[C@@H](C)O [Peptide 310] | 0.66 ± 0.025 µM
13 | CC[C@H](C)[C@H](NC(=O)[C@H](Cc1ccc(O)cc1)NC(=O)CNC(=O)[C@H](C)NC(=O)[C@H](CC(C)C)NC(=O)[C@H](CCC(N)=O)NC(=O)[C@H](Cc1ccc(O)cc1)NC(=O)[C@H](Cc1ccc(O)cc1)NC(=O)[C@@H](NC(=O)[C@@H](NC(=O)[C@H](CC(C)C)NC(=O)[C@H](Cc1c[nH]cn1)NC(=O)[C@@H](NC(=O)[C@H](C)N)C(C)C)[C@@H](C)CC)[C@@H](C)CC)C(=O)N[C@@H](CC(C)C)C(=O)N[C@H](C(=O)N[C@H](C(=O)N[C@@H](CC(C)C)C(=O)NCC(=O)N[C@@H](CC(C)C)C(=O)NCC(=O)O)C(C)C)[C@@H](C)O [Peptide 323] | 2.17 µM
14 | CC[C@H](C)[C@H](NC(=O)[C@H](CO)NC(=O)[C@H](CC(N)=O)NC(=O)[C@H](Cc1ccccc1)NC(=O)[C@@H](NC(=O)[C@H](CC(C)C)NC(=O)[C@H](CCC(N)=O)NC(=O)[C@H](CC(=O)O)NC(=O)[C@H](CCC(=O)O)NC(=O)[C@@H](N)Cc1ccccc1)C(C)C)C(=O)N[C@@H](CO)C(=O)N[C@@H](C)C(=O)N[C@@H](CCCNC(=N)N)C(=O)N[C@@H](C)C(=O)N[C@@H](CC(C)C)C(=O)N[C@@H](CCCCN)C(=O)N[C@@H](C)C(=O)N[C@@H](Cc1ccc(O)cc1)C(=O)N[C@@H](Cc1ccccc1)C(=O)N[C@H](C(=O)N[C@@H](C)C(=O)O)[C@@H](C)O [Peptide 345] | 0.008 ± 0.0003 µM
15 | CC[C@H](C)[C@H](NC(=O)[C@H](CCSC)NC(=O)[C@H](Cc1ccc(O)cc1)NC(=O)[C@H](Cc1ccccc1)NC(=O)[C@H](CCC(N)=O)NC(=O)[C@@H](NC(=O)CNC(=O)[C@@H](NC(=O)CN)[C@@H](C)O)C(C)C)C(=O)N[C@H](C(=O)N[C@H](C(=O)NCC(=O)N[C@H](C(=O)N[C@H](C(=O)N[C@H](C(=O)N[C@@H](CC(C)C)C(=O)N[C@@H](C)C(=O)N[C@@H](C)C(=O)N[C@@H](CC(C)C)C(=O)N[C@@H](Cc1ccccc1)C(=O)N[C@@H](CCSC)C(=O)O)[C@@H](C)CC)[C@@H](C)CC)C(C)C)[C@@H](C)CC)C(C)C [Peptide 312] | 0.62 ± 0.11 µM

Same assay, conditions: HLA-DR1 competition assay, unpublished data; read-out: IC50

Row | Compound | IC50
16 | CSCC[C@H](NC(=O)[C@H](CC(=O)O)NC(=O)[C@@H](NC(=O)[C@H](CCCNC(=N)N)NC(=O)[C@H](CCSC)NC(=O)[C@H](Cc1ccccc1)NC(=O)[C@@H]1CCCN1C(=O)[C@@H](NC(=O)[C@H](CCC(N)=O)NC(=O)[C@H](CCCCN)NC(=O)CNC(=O)[C@@H]1CCCN1C(=O)[C@@H](N)CC(N)=O)C(C)C)[C@@H](C)O)C(=O)N[C@@H](CC(C)C)C(=O)O [Peptide B7055] | 0.011 µM
